Measurements published in ChEMBL document CHEMBL5042539, “Structure-Guided Discovery of the Novel Covalent Allosteric Site and Covalent Inhibitors of Fructose-1,6-Bisphosphate Aldolase to Overcome the Azole Resistance of Candidiasis” (J Med Chem, 2022).
In brackets after ≈: the same amount, converted by molar mass. Activity calls are given as the source filed them. No cut-off for these calls is given here.

Assays:
Candida albicans [1] = assay: Antifungal activity against Candida albicans SC5314 incubated for 48 hrs by CLSI based broth microdilution method; type: functional
Candida albicans [2] = assay: Antifungal activity against fluconazole resistant Candida albicans 103 incubated for 48 hrs by CLSI based broth microdilution method; type: functional
Candida albicans [3] = assay: Antifungal activity against fluconazole resistant Candida albicans 7781 incubated for 48 hrs by CLSI based broth microdilution method; type: functional
Candida albicans [4] = assay: Antifungal activity against fluconazole resistant Candida albicans 904 incubated for 48 hrs by CLSI based broth microdilution method; type: functional
[5] = Inhibition of wild type Candida albicans Fructose-1,6-Bisphosphate Aldolase transfected in Escherichia coli BL21 (DE3) incubated for 3 mins in presence of NADH by spectrophotometric analysis
Candida albicans [6] = assay: Inhibition of wild type Candida albicans Fructose-1,6-Bisphosphate Aldolase transfected in Escherichia coli BL21 (DE3) at 100 uM incubated for 3 mins in presence of NADH by spectrophotometric analysis relative to control
Candida albicans [7] = assay: Inhibition of wild type Candida albicans Fructose-1,6-Bisphosphate Aldolase transfected in Escherichia coli BL21 (DE3) at 50 uM incubated for 3 mins in presence of NADH by spectrophotometric analysis relative to control
[8] = Cytotoxicity against human HaCaT cells; type: toxicity, cell-based
[9] = Binding affinity to Candida albicans Fructose-1,6-Bisphosphate Aldolase assessed as inhibition constant incubated for 12 to 40 mins by NADH-linked enzymatic assay
Candida albicans [10] = assay: Binding affinity to Candida albicans Fructose-1,6-Bisphosphate Aldolase assessed as Kinact incubated for 12 to 40 mins by NADH-linked enzymatic assay; conditions: time 12-40 min
Candida albicans [11] = assay: Binding affinity to Candida albicans Fructose-1,6-Bisphosphate Aldolase assessed as ratio of kinact/Ki incubated for 12 to 40 mins by NADH-linked enzymatic assay; conditions: time 12-40 min
Candida albicans [12] = assay: Antifungal activity against azole-resistant Candida albicans 030410 assessed as inhibition of fungal filamentation by measuring reduction in yeast-hypha transition at 32 ug/ml by microscopic analysis; type: functional, organism-based; conditions: dose 32.0 µg/ml
Candida albicans [13] = assay: Antibiofilm activity against azole resistant Candida albicans 0304103 assessed as inhibition of biofilm formation by XTT assay; type: functional, organism-based; conditions: dose 0-64 µg/ml

| SMILES | MIC80 (Candida albicans [1]) [µg/mL] | MIC80 (Candida albicans [2]) [µg/mL] | MIC80 (Candida albicans [3]) [µg/mL] | MIC80 (Candida albicans [4]) [µg/mL] | IC50 [5] [nM] | other results |
| --- | --- | --- | --- | --- | --- | --- |
| O=C1c2ccccc2CN1Cc1ccccc1 | > 64 | > 64 | > 64 | > 64 | > 100000 | inhibition (Candida albicans [6]): < 50% |
| Cn1sc(=O)n(Cc2ccccc2)c1=O |  |  |  |  |  | inhibition (Candida albicans [7]): 53.7% |
| O=c1c2ccccc2[se]n1-c1ccc(-c2ccccc2)cc1 | 32 (≈ 91.4 µM) | 64 (≈ 183 µM) | 64 (≈ 183 µM) | 64 (≈ 183 µM) | 60 |  |
| O=C(O)CCCCC1CCSS1 (centres undefined) |  |  |  |  |  | inhibition (Candida albicans [7]): 80% |
| O=C(NCc1ccccc1)n1sc2ccccc2c1=O |  |  |  |  | 370 |  |
| O=c1c2ccccc2[se]n1-c1ccc(N2CCOCC2)cc1 |  |  |  |  | 130 |  |
| CC(C)c1ccc(-n2[se]c3ccccc3c2=O)cc1 | 4 (≈ 12.6 µM) | 2 (≈ 6.32 µM) | 2 (≈ 6.32 µM) | 4 (≈ 12.6 µM) | 110 | IC50 [8]: > 32 µM |
| COc1ccc(-n2[se]c3ccccc3c2=O)cc1 | 4 (≈ 13.1 µM) | 4 (≈ 13.1 µM) | 4 (≈ 13.1 µM) | 4 (≈ 13.1 µM) | 91 |  |
| Nc1ccc(-n2[se]c3ccccc3c2=O)cc1 | 8 (≈ 27.7 µM) | 8 (≈ 27.7 µM) | 8 (≈ 27.7 µM) | 8 (≈ 27.7 µM) | 82.3 | Ki [9]: 559 nM; Kinact (Candida albicans [10]): 0.00199 s⁻¹; Ratio (Candida albicans [11]): 3560 M⁻¹ s⁻¹; IC50 [8]: > 32 µM |
| O=c1[nH]sc2ccccc12 |  |  |  |  | > 5000 | inhibition (Candida albicans [7]): < 50% |
| O=c1c2ccccc2[se]n1-c1ccc(F)cc1F | 4 (≈ 12.9 µM) | 4 (≈ 12.9 µM) | 2 (≈ 6.45 µM) | 4 (≈ 12.9 µM) | 84 | IC50 [8]: > 32 µM |
| O=C1c2ccccc2CN1c1ccccc1 | > 64 | > 64 | > 64 | > 64 | > 100000 | inhibition (Candida albicans [6]): < 50% |
| O=c1c2ccccc2[se]n1CCc1ccccc1 | 4 (≈ 13.2 µM) | 4 (≈ 13.2 µM) | 2 (≈ 6.62 µM) | 4 (≈ 13.2 µM) | 22.5 |  |
| CCCCc1ccc(-n2[se]c3ccccc3c2=O)cc1 | 8 (≈ 24.2 µM) | 4 (≈ 12.1 µM) | 4 (≈ 12.1 µM) | 8 (≈ 24.2 µM) | 100 |  |
| O=c1c2ccccc2[se]n1-c1ccccn1 | 4 (≈ 14.5 µM) | 4 (≈ 14.5 µM) | 4 (≈ 14.5 µM) | 2 (≈ 7.27 µM) | 72.7 |  |
| O=c1c2ccccc2[se]n1-c1ccc(-n2cncn2)cc1 | 8 (≈ 23.4 µM) | 8 (≈ 23.4 µM) | 8 (≈ 23.4 µM) | 4 (≈ 11.7 µM) | 38 | Ki [9]: 486 nM; Kinact (Candida albicans [10]): 0.00506 s⁻¹; Ratio (Candida albicans [11]): 10.4 M⁻¹ s⁻¹; IC50 [8]: > 32 µM |
| O=C(Cc1ccccc1)n1sc2ccccc2c1=O |  |  |  |  | 488 |  |
| CC(=O)c1ccc(-n2[se]c3ccccc3c2=O)cc1 | 16 (≈ 50.6 µM) | 8 (≈ 25.3 µM) | 8 (≈ 25.3 µM) | 16 (≈ 50.6 µM) | 17.3 |  |
| O=C(NCc1ccccc1)N1Cc2ccccc2C1=O | > 64 | > 64 | > 64 | > 64 | > 100000 | inhibition (Candida albicans [6]): < 50% |
| O=c1c2ccccc2[se]n1-c1nccs1 | 4 (≈ 14.2 µM) | 8 (≈ 28.4 µM) | 8 (≈ 28.4 µM) | 4 (≈ 14.2 µM) | 113 |  |
| CCCCCCNC(=O)n1cc(F)c(=O)[nH]c1=O |  |  |  |  |  | inhibition (Candida albicans [7]): 62.2% |
| CC(C)C[C@H](NC(=O)[C@H](Cc1ccccc1)NC(=O)c1cnccn1)B(O)O |  |  |  |  |  | inhibition (Candida albicans [7]): -0.52% |
| O=C(O)c1ccc(-n2[se]c3ccccc3c2=O)cc1 | 64 (≈ 201 µM) | 64 (≈ 201 µM) | 64 (≈ 201 µM) | 64 (≈ 201 µM) | 44.5 |  |

| SMILES | MIC80 (Candida albicans [1]) [µg/mL] | MIC80 (Candida albicans [2]) [µg/mL] | MIC80 (Candida albicans [3]) [µg/mL] | MIC80 (Candida albicans [4]) [µg/mL] | IC50 [5] [nM] | other results |
| --- | --- | --- | --- | --- | --- | --- |
| Cc1ccc(-n2[se]c3ccccc3c2=O)cc1 | 4 (≈ 13.9 µM) | 2 (≈ 6.94 µM) | 2 (≈ 6.94 µM) | 4 (≈ 13.9 µM) | 13.3 | IC50 [8]: > 32 µM |
| O=c1c2ccccc2[se]n1Cc1ccccc1 | 2 (≈ 6.94 µM) | 4 (≈ 13.9 µM) | 4 (≈ 13.9 µM) | 4 (≈ 13.9 µM) | 118 |  |
| COC(=O)/C=C/C(=O)OC |  |  |  |  |  | inhibition (Candida albicans [7]): 0.58% |
| O=C(c1ccccc1)c1ccc(-n2[se]c3ccccc3c2=O)cc1 | 4 (≈ 10.6 µM) | 4 (≈ 10.6 µM) | 4 (≈ 10.6 µM) | 4 (≈ 10.6 µM) | 31 | Activity (Candida albicans [12]): Active; Activity (Candida albicans [13]): Dose-Dependent Effect |
| O=c1c2ccccc2[se]n1-c1ccc(-n2ccnc2)cc1 | 4 (≈ 11.8 µM) | 4 (≈ 11.8 µM) | 4 (≈ 11.8 µM) | 4 (≈ 11.8 µM) | 45.8 | Activity (Candida albicans [12]): Active; Activity (Candida albicans [13]): Dose-Dependent Effect |
| CCN(CC)C(=S)SSC(=S)N(CC)CC |  |  |  |  |  | inhibition (Candida albicans [7]): 83% |
| O=c1c2ccccc2sn1-c1ccccc1 |  |  |  |  | 242 | IC50 [8]: > 32 µM |
| O=c1c2ccccc2[se]n1-c1ccc(Cl)cc1Cl | 4 (≈ 11.7 µM) | 2 (≈ 5.83 µM) | 2 (≈ 5.83 µM) | 4 (≈ 11.7 µM) | 76 | IC50 [8]: > 32 µM |
| COC(=O)c1ccc(-n2[se]c3ccccc3c2=O)cc1 | 8 (≈ 24.1 µM) | 4 (≈ 12 µM) | 8 (≈ 24.1 µM) | 8 (≈ 24.1 µM) | 120 |  |
| O=c1c2ccccc2sn1S(=O)(=O)c1ccccc1 |  |  |  |  | > 50000 | inhibition (Candida albicans [7]): < 50% |
| N#Cc1ccc(-n2[se]c3ccccc3c2=O)cc1 | 8 (≈ 26.7 µM) | 16 (≈ 53.5 µM) | 8 (≈ 26.7 µM) | 16 (≈ 53.5 µM) | 38.9 |  |
| CCCCNC(=O)Nc1ccc(-n2[se]c3ccccc3c2=O)cc1 | 8 (≈ 20.6 µM) | 8 (≈ 20.6 µM) | 8 (≈ 20.6 µM) | 8 (≈ 20.6 µM) | 93 |  |
| CC(=O)Nc1ccc(S(=O)(=O)n2sc3ccccc3c2=O)cc1 |  |  |  |  | > 50000 | inhibition (Candida albicans [7]): < 50% |
| O=C(C(=O)n1sc2ccccc2c1=O)c1ccccc1 |  |  |  |  | 15700 |  |
| C[C@@H]1O[C@@H]1P(=O)(O)O |  |  |  |  |  | inhibition (Candida albicans [7]): 0.32% |
| O=c1c2ccccc2[se]n1-c1ccc(C(F)(F)F)cc1 | 4 (≈ 11.7 µM) | 4 (≈ 11.7 µM) | 4 (≈ 11.7 µM) | 8 (≈ 23.4 µM) | 13 | Ki [9]: 58 nM; Kinact (Candida albicans [10]): 0.00092 s⁻¹; Ratio (Candida albicans [11]): 15.9 M⁻¹ s⁻¹; IC50 [8]: > 32 µM |
| O=c1c2ccccc2[se]n1Nc1ccccc1 |  |  |  |  | 96.3 |  |
| OC(Cn1cncn1)(Cn1cncn1)c1ccc(F)cc1F [FLUCONAZOLE] | 0.25 (≈ 0.816 µM) | > 64 | > 64 | > 64 |  | Activity (Candida albicans [12]): inactive; Activity (Candida albicans [13]): Active |
| NC(=O)c1ccc(-n2[se]c3ccccc3c2=O)cc1 | 64 (≈ 202 µM) | 64 (≈ 202 µM) | 64 (≈ 202 µM) | 64 (≈ 202 µM) | 85 |  |
| O=c1c2ccccc2[se]n1-c1cccc(C(F)(F)F)c1 | 4 (≈ 11.7 µM) | 4 (≈ 11.7 µM) | 4 (≈ 11.7 µM) | 2 (≈ 5.84 µM) | 84 | IC50 [8]: > 32 µM |
| CCc1ccc(-n2[se]c3ccccc3c2=O)cc1 | 4 (≈ 13.2 µM) | 1 (≈ 3.31 µM) | 2 (≈ 6.62 µM) | 4 (≈ 13.2 µM) | 92 | Activity (Candida albicans [12]): Active; Activity (Candida albicans [13]): Dose-Dependent Effect; IC50 [8]: > 32 µM |
| O=C(NC1CCCCC1)n1sc2ccccc2c1=O |  |  |  |  | 1110 |  |
| O=C(NCc1ccccc1)n1[se]c2ccccc2c1=O | 16 (≈ 48.3 µM) | 8 (≈ 24.2 µM) | 8 (≈ 24.2 µM) | 16 (≈ 48.3 µM) | 97.3 |  |
